Values quoted from earlier work, collected in patent publication US12442091B2, “Electrochemical dehydrogenation, epoxidation, substitution, and halogenation of hydrocarbons and hydrocarbon derivatives” (Wisconsin Alumni Research Foundation, priority 2020, dated 2025).
≈ marks a conversion by molar mass, not a printed value.

SMILES | solubility in water [µg/mL]
CC(C)Br [2-bromopropane] | 3200 (≈ 26 mM)
C=CC [propene] | 384 (≈ 9.13 mM)
